Test results from PMC8986850, “Development and exploration of novel substituted thiosemicarbazones as inhibitors of aldose reductase via in vitro analysis and computational study” (Scientific Reports, 2022).

Experiments:
ALR2 = target: T1, ALR2 (Bos taurus, UniProt P16116); assay: ALR2 enzyme inhibition assay (enzyme extracted from calf lenses); format: biochemical, bovine; conditions: for IC50: bovine lens ALR2, substrate DL-glyceraldehyde, mean ± SEM of three measurements
T1 construct: from tissue; host or cells: calf eye lenses
Method: Compounds 3a-o were tested against ALR2 to evaluate their inhibitory potential against aldose reductase whereas selectivity was determined via performing ALR1 inhibition assay. For the enzyme inhibition assay, ALR2 and ALR1 were extracted from bovine sources (ALR2 from eyes and ALR1 from kidneys). Moreover, inhibitions studies were also carried out on the expressed ALR2 (human AKR1B1) and inhibition data for ALR2- bovine source and expressed enzyme was compared and analyzed. The protocols for enzyme extraction and expression in the bacterial system are included in the section of “Supporting information”. […] For the purpose of comparison and validation of enzyme inhibition data, these compounds were tested against human AKR1B1 (hAKR1B1) expressed in E. coli BL21 (DE3).
(§1) For the determination of enzyme activity of ALR1 and ALR2, 100 µL of reaction mixture was composed of 20 µL of buffer (100 mM sodium phosphate, pH 6.2), 30 µL of enzyme extract, 20 µL of substrate (10 mM), 20 µL of cofactor (0.1 mM of NADPH) and 10 µL of test compound (1 mM)[6],[21]. The reaction mixture without cofactor was incubated at 32°C for 10 min, then the enzymatic reaction was initiated with the addition of NADPH and monitored for 5 minutes. Similar protocols were followed for ALR1 and ALR2, however the substrate was different for each enzyme, with sodium-D-glucoronate and DL-glyceraldehyde used as the substrates for the ALR1 and ALR2 assays, respectively. […] In addition, similar protocols were adopted for human AKR1B1 that was expressed in E. coli BL21 (DE3), though the determined protein concentration was 12 µg/mL for the expressed enzyme. Detailed protocols for the preparation of ALR1, ALR2 and expressed human AKR1B1 can be found in the supporting information.
(§2) The newly synthesized N-substitute thiosemicarbazones (3a-o) were dissolved in 100% DMSO and diluted with deionized water, keeping the DMSO concentration equal to 0.1% in the assay.
The extraction of ALR2 was carried out from calf lenses via adopting method described in
in (Hayman and Kinoshita 1965) with little modification. The lenses were obtained from slaughterhouse immediately after calf’s slaughtering and stored at -20^◦C until further use. These lense (150-170g) were subjected to homogenization with about three times volume of cold distilled water and then centrifugation was carried out for the homogenate at 10,000 x g for 14 minutes for removal of insoluble lipids particles. Precipitates were discarded and supernatant layer was subjected to 40% saturation of ammonium sulphate and again centrifugation was performed with same parameters for 14 minutes and again precipitates were discarded. […] In the last step, the supernatant was subjected to 75% of saturation with ammonium sulphate to obtain ALR2. Now, the precipitates were collected instead supernatant because precipitated protein was the expected desired ALR2. The precipitated enzyme (ALR2) was redissolved in 50mM solution of sodium chloride and dialyzed for 24 hours against 50mM solution (3.5L) of NaCl. The volume was recorded before and after dialysis, then dialyzed material was treated with liquid nitrogen. The extracted ALR2 was stored in 1mL Eppendorf tube in deep freezer at -80 ^◦C till further enzymatic studies.

human AKR1B1 (hAKR1B1) = target: T2, human AKR1B1 (hAKR1B1) (Homo sapiens, UniProt P15121); assay: Inhibition of expressed human AKR1B1 (E. coli BL21 (DE3)); format: biochemical; conditions: for IC50: human AKR1B1 expressed in E. coli BL21 (DE3), mean ± SEM of three measurements
T2 construct: made in house; host or cells: E. coli BL21 (DE3)
Method: For the enzyme inhibition assay, ALR2 and ALR1 were extracted from bovine sources (ALR2 from eyes and ALR1 from kidneys). Moreover, inhibitions studies were also carried out on the expressed ALR2 (human AKR1B1) and inhibition data for ALR2- bovine source and expressed enzyme was compared and analyzed. The protocols for enzyme extraction and expression in the bacterial system are included in the section of “Supporting information”. […] For the purpose of comparison and validation of enzyme inhibition data, these compounds were tested against human AKR1B1 (hAKR1B1) expressed in E. coli BL21 (DE3).
as §1, with “The reaction mixture without cofactor was incubated at 32°C for 10 min, then the enzymatic reaction was initiated with the addition of NADPH and monitored for 5 minutes.” left out
as §2
The expression plasmid for aldose reductase (pDONR223_AKR1B1_WT) was gift from Addgene in stable culture. Streaking of this culture has been carried out on LB Agar plate then incubated overnight, after growth of colonies , inoculation was performed in LB medium then incubated this medium in shaking incubator at 37 °C. After 48 hours turbidity was measured when OD=0.6 then some of bacterial growth was prepared as 50% glycerol stock. Others are subjected to plasmid isolation following method Miniprep. Meanwhile E. Coli BL21 De3 cells were made competent then transformation with extracted plasmid (AKR1B1) had been carried out heat shock method. Transformed cell ( E.Coli BL21 DE3+AKR1B1) were grown in 37 °C in shaking incubator for 48 hr. The selection for transformed cells was carried out with the help of antibiotic (spectinomycin 50µg/ml). […] For the expression of aldose reductase , E.coli BL21DE3 were induced with of IPTG(Isopropyl-d-thiogalactopyranoside)[3]. […] The expressed enzyme was stabilized by addition 10 mM Tris–HCl buffer, 0.5 mM EDTA, 5 mM β-marcaptoethanol at pH 8.0 and 20% (v/v) glycerol. Cells were lysed with lysis buffer and then precipitation with ammonium sulfate up to 80% saturation was done . the expressed enzyme was dialyzed overnight against tris buffer. Protein quantification was performed following Bradford protein assay. Aliqoutes were stored at -80 refrigerator.

ALR1 = target: T3, ALR1 (Bos taurus, UniProt Q3ZCJ2); assay: ALR1 enzyme inhibition assay (enzyme extracted from calf kidneys); format: biochemical, bovine; conditions: for inhibition at 100 µM: bovine kidney ALR1, 100 µM inhibitor, read-out: I (%, 100 µM) (ALR1); for IC50: bovine kidney ALR1, substrate sodium-D-glucoronate, mean ± SEM of three measurements
T3 construct: The calf’s kidneys were obtained after slaughtering and dissection; from tissue; host or cells: calf kidneys
T3 sequence (Q3ZCJ2 whole entry): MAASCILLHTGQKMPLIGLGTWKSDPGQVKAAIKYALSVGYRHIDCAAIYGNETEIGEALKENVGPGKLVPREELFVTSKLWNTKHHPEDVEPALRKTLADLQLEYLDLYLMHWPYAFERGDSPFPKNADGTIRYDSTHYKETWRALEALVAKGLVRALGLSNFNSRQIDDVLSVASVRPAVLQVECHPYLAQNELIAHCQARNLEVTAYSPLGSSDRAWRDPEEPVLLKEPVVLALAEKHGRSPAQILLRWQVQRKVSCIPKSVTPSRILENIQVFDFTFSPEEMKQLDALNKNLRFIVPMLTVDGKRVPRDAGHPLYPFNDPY
Method: Compounds 3a-o were tested against ALR2 to evaluate their inhibitory potential against aldose reductase whereas selectivity was determined via performing ALR1 inhibition assay. For the enzyme inhibition assay, ALR2 and ALR1 were extracted from bovine sources (ALR2 from eyes and ALR1 from kidneys). Moreover, inhibitions studies were also carried out on the expressed ALR2 (human AKR1B1) and inhibition data for ALR2- bovine source and expressed enzyme was compared and analyzed. The protocols for enzyme extraction and expression in the bacterial system are included in the section of “Supporting information”. […] For the purpose of comparison and validation of enzyme inhibition data, these compounds were tested against human AKR1B1 (hAKR1B1) expressed in E. coli BL21 (DE3). We found a similar pattern of enzyme inhibition for the synthesized compounds against extracted enzyme (ALR2) as well as expressed enzyme (hAKR1B1).
as §1, §2
The calf’s kidneys were obtained after slaughtering and dissection, dissolved in 3 volumes of sodium phosphate buffer (10mM) which is composed of 2.0 mM EDTA, 2.5mM β-mercaptoethanol, 0.25M solution of sucrose at pH 7.25. First, the homogenisation was carried out then centrifugation of the homogenate was performed at 12000 x g at 0-2^◦C for 30 minutes. The precipitates containing insoluble lipids were discarded and the collected supernatant layer was treated with 40% saturation of ammonium sulphate. This liquid mixture was subjected to centrifugation at 11000 x g at 0-2^◦C for 30 minutes. Now, precipitates were again discarded and supernatant was collected and treated with 50% ammonium sulphate and procedure was repeated in the same manner as in previous step. In the last step, the saturation of ammonium sulphate was increased up to 75% and supernatant was subjected to same parameter of centrifugation. At this final step, precipitates were obtained and supernatant layer was discarded. The obtained material of precipitates was composed of ALR1and redissolved in initial buffer that was used during homogenisation. Finally, material was dialyzed overnight with same buffer system. The dialyzed fractions containing ALR1 were stored at -80^◦C for further use[5].

[1] = DPPH radical scavenging activity; conditions: 100 µM compound, methanolic DPPH 0.025 mg/mL, 517 nm
Method: DPPH (2,2-diphenyl-1-picrylhydrazyl) was used to explore the free radical quenching ability of 3a-o so as to provide a gauge of their antioxidant potential. The experiment was conducted according to a previously reported protocol with slight modifications. Percent free radical scavenging activities (% FRSA) of 3a-o were determined by spectrophotometric analysis at 517 nm using a homogenous mixture of methanolic DPPH (0.025 mg/mL) and a 100 µM solution of the tested compound, with ascorbic acid used as a positive control (Fig. 3).

Row | Structure (SMILES) | inhibition at 100 µM (ALR2; bovine lens ALR2, 100 µM inhibitor, read-out: I (%, 100 µM) (ALR2) (converted)) | inhibition at 100 µM (human AKR1B1 (hAKR1B1); human AKR1B1 expressed in E. coli, 100 µM inhibitor, read-out: I (%, 100 µM) (AKR1B1)) | inhibition at 100 µM (ALR1) | % FRSA (percent free radical scavenging activity) [1] | melting point | IC50 (ALR2) | IC50 (human AKR1B1 (hAKR1B1)) | IC50 (ALR1)
1 | CC(C)(C)c1cc(C=NNC(=S)NCCc2ccccc2)c(O)c(C(C)(C)C)c1 [Compound 3o, 2-(3,5-di-tert-butyl-2-hydroxybenzylidene)-N-phenethylhydrazinecarbothioamide] | ≤ 39.1% | 24.9% | ≤ 29.9% | 83.02% | 174 to 176 °C | – | – | –
2 | CC(C)(C)c1cc(C=NNC(=S)Nc2ccccc2)c(O)c(C(C)(C)C)c1 [Compound 3a, 2-(3,5-di-tert-butyl-2-hydroxybenzylidene)-N-phenylhydrazinecarbothioamide] | – | – | – | 79.41% | 178 to 180 °C | 2.99 ± 0.0021 µM | 3.89 ± 0.0034 µM | 2.83 ± 0.0034 µM
3 | COc1cccc(NC(=S)NN=Cc2cc(C(C)(C)C)cc(C(C)(C)C)c2O)c1 [Compound 3c, 2-(3,5-di-tert-butyl-2-hydroxybenzylidene)-N-(3-methoxyphenyl)hydrazine carbothioamide] | – | – | – | 85.16% | 173 to 175 °C | 4.49 ± 0.0034 µM | 3.27 ± 0.0035 µM | 4.21 ± 0.0021 µM
4 | CC(C)(C)c1cc(C=NNC(=S)NCc2ccc(Cl)cc2)c(O)c(C(C)(C)C)c1 [Compound 3f, N-(4-chlorobenzyl)-2-(3,5-di-tert-butyl-2-hydroxybenzylidene)hydrazine carbothioamide] | – | – | 4.27 to 26.2% | 82.98% | 184 to 186 °C | 3.12 ± 0.0031 µM | 3.04 ± 0.0034 µM | –
